From patent US20100009920A1, “TTK AS TUMOR MARKER AND THERAPEUTIC TARGET FOR LUNG CANCER” (priority 2006, published 2010)
Entries after “also recorded” stand apart in the source; their conditions may differ.

Columns and labels:
Assay type in all cases: cell-based, human
[1] = system: A549 cells; experiment: MTT assay of A549 cells treated with cell-permeable 11R-EGFR peptides; conditions: A549 cells, 2.5, 5 and 7.5 micro-mol/L, 5 days
Protocol: 17˜31 amino acid peptide sequences corresponding to a part of EGFR protein that contained possible TTK-interacting region were covalently linked at its NH2 terminus to a membrane transducing 11 poly-arginine sequence (Hayama, S, et al. Cancer Res. 66, 10339-48 (2006), Futaki S, et al. J Biol. Chem. 276, 5836-5840 (2001)). Three cell-permeable peptides were synthesized:
Peptides were purified by preparative reverse-phase high-pressure liquid chromatography. A549 cells were incubated with the 11R peptides at the concentration of 2.5, 5, and 7.5 micro-mol/L for 5 days. The medium was exchanged at every 48 hours at the appropriate concentrations of each peptide and the viability of cells was evaluated by MTT assay at 5 days after the treatment.

[2] = system: LC319 and A549 cells; experiment: MTT and colony-formation assays after transfection of siRNA-expression plasmids
Protocol: (§1) A vector-based RNA interference (RNAi) system, psiH1BX3.0, had previously established to direct the synthesis of siRNAs in mammalian cells (Suzuki et al., 2003, 2005; Kato et al, 2005; Furukawa et al, 2005). 10 micro-g of siRNA-expression vector were transfected into NSCLC cell lines LC319 and A549 both of which over-expressed TTK endogenously, using 30 micro-1 of Lipofectamine 2000 (Invitrogen). The transfected cells were cultured for five days in the presence of appropriate concentrations of geneticin (G418), after which cell numbers and viability were measured by Giemsa staining and triplicate MTT assays. The target sequences of the synthetic oligonucleotides for RNAi were as follows: control 1 (Luciferase: Photinus pyralis luciferase gene), 5′-CGTACGCGGAATACTTCGA-3′ (SEQ ID NO: 9); control 2 (Scramble: chloroplast Euglena gracilis gene coding for 5S and 16S rRNAs),

[3] = system: TTK; experiment: Semiquantitative RT-PCR of TTK expression after transfection of siRNA-expression plasmids; conditions: LC319 and A549 cells, versus control siRNAs (LUC, SCR)
Protocol: Total RNA was extracted from cultured cells and clinical tissues using Trizol reagent (Life Technologies, Inc.) according to the manufacturer's protocol. Extracted RNAs and normal human tissue poly(A) RNAs were treated with DNase I (Nippon Gene) and were reverse-transcribed using oligo(dT)20 primer and SuperScript II reverse transcriptase (Invitrogen). Semiquantitative RT-PCR experiments were carried out with the following synthesized gene-specific primers or with beta-actin (ACTB)-specific primers as an internal control: TTK,
as §1, with “The target sequences of the synthetic oligonucleotides for RNAi were as follows: control 1 (Luciferase: Photinus pyralis luciferase gene), 5′-CGTACGCGGAATACTTCGA-3′ (SEQ ID NO: 9); control 2 (Scramble: chloroplast Euglena gracilis gene coding for 5S and 16S rRNAs),” left out

Row | Substance | cell viability (MTT assay) [1] | amount of TTK transcript [3] | other results
1 | RRRRRRRRRRR-GGG-DVYMIMVKCWMIDADSRPK (An artificially synthesised dominant negative peptide) [11R-EGFR918-936] | significant decreases |  | 
2 | RRRRRRRRRRR-GGG-EFMAELLRYFRPQSKRDII (RRRRRRRRRRRGGGEFMAELLRYFRPQSKRDII) [scramble peptides, Scramble peptides derived from 11R-EGFR937-955, synthesized as a control, reference compound] | no growth-suppressive effect |  | 
3 | RRRRRRRRRRR-GGG-ISSILEKGERLPQPPICTI (An artificially synthesised dominant negative peptide) [11R-EGFR899-917] | significant decreases |  | 
4 | 5′-ACAGTGTTCCGCTAAGTGA-3′ [si-TTK-1] |  | significantly decreased | cell viability (MTT assay) ([2]; versus two control siRNAs): reduced significantly; colony numbers (colony-formation assay) ([2]; versus two control siRNAs): reduced significantly
5 | 5′-ATCACGGACCAGTACATCT-3′ [si-TTK-2] |  | weaker reduction | growth-suppressive effect [2]: modest growth-suppressive effect
6 | RRRRRRRRRRR-GGG-FRELIIEFSKMARDPQRYL (An artificially synthesised dominant negative peptide) [11R-EGFR937-955] | most effective; also recorded: significant decreases |  | 
